Each block holds one compound with its values, some of them ahead of it.
Legend:
[1] = Stability of the phantom solutions at +2-8° C. (residual absorbance, UV/VIS); type: physicochemical; conditions: +2-8° C.
Method: Several stability studies were performed to evaluate the effect of different buffers, additives such as excipients or preservatives, and storage conditions on the dye formulation. In particular the stability of the formulations after storage at +2-8° C. in a refrigerator was firstly investigated.
(§1) Stability was measured as reduction in the absorbance at the maximum wavelength of the dye acquired using a UV/VIS spectrophotometer, denoting reduction of the dye monomer content in solution. All the results were then reported as residual percentage vs the baseline (T=0), wherein at time=0 the percentage is 100%. A decrease in absorbance is associated with the reduction of the concentration of the dye in the formulation buffer, indicating low stability and degradation of the main chromophore species.
In the Tables below the residual absorbance of different dyes, i.e. […] and S0456, in some representative organic buffering solutions is reported after storage of the formulations at +2-8° C.

[2] = Stability of the phantom solutions at +2-8° C. in the presence of additives (residual absorbance); type: physicochemical
Method: as §1
The effect of the presence of an additive on the stability of the formulations of the invention has been also investigated.
The preparation of the above buffers is described below:
50 mM HEPES (pH 7.4)+0.04% Tween 20: to prepare 100 mL of buffering solution, 1.19 g of HEPES were dissolved in 80 mL of water; 40 μL of Tween 20 were added and the pH was adjusted to 7.4 with 0.1 M HCl. The buffering solution was then brought to 100 mL volume with water and filtered on 0.22 μm membrane in sterile conditions.
50 mM HEPES (PH 7.4)+0.02% Sodium Azide: to prepare 100 mL of buffering solution, 1.19 g of HEPES and 20 mg of Sodium Azide were dissolved in 80 mL of water and the pH was adjusted to 7.4 with 0.1 M HCl. The buffering solution was then brought to 100 mL volume with water and filtered on 0.22 μm membrane in sterile conditions.
10 mM HEPES (PH 7.0)+10% EtOH: to prepare 100 mL of buffering solution, 0.24 g of HEPES were dissolved in 80 mL of water and the pH was adjusted to 7.0 with 0.1 M HCl.
Then, 10 mL of 100% Ethanol were added. The buffering solution was then brought to 100 mL volume with water and filtered on 0.22 μm membrane in sterile conditions.
Analogous solutions were prepared with the same procedure for MOPS, BES and TRICINE buffers.

[3] = Stability of the phantom solutions at 25° C. (residual absorbance); type: physicochemical; conditions: storage at 25° C. in dark
Method: as §1
The stability of the formulations under stressed conditions was also investigated.

[4] = Stability of the phantom solutions at +2-8° C. during long-term storage (residual absorbance); type: physicochemical; conditions: 3 μM dye in HEPES 50 mM, pH 7.4, +2-8° C. protected from light
Method: Stability was measured as reduction in the absorbance at the maximum wavelength of the dye acquired using a UV/VIS spectrophotometer, denoting reduction of the dye monomer content in solution. […] A decrease in absorbance is associated with the reduction of the concentration of the dye in the formulation buffer, indicating low stability and degradation of the main chromophore species. The stability of the formulations under long-term storage conditions was also investigated. In particular, samples of 3 μM IRDye […] and 3 μM IRDye 800BK dissolved in HEPES buffer were stored refrigerated at +2-8° C. protected from light exposure for at least 6 months. For the long-term stability study at 2-8° C., samples of.

[5] = cited from earlier work

Residual absorbance percentage ([1]; 3 μM dye in HEPES (50 mM, pH 7.4), 1 week (Table III)): 99.0%
Residual absorbance percentage ([1]; 3 μM dye in HEPES (50 mM, pH 7.4), 2 weeks (Table III)): 98.5%
Residual absorbance percentage ([1]; 3 μM dye in HEPES (50 mM, pH 7.4), 4 weeks (Table III)): 96.9%
Residual absorbance percentage ([1]; 3 μM dye in MOPS (50 mM, pH 7.0), 1 week (Table III)): 98.8%
Residual absorbance percentage ([1]; 3 μM dye in MOPS (50 mM, pH 7.0), 2 weeks (Table III)): 98.5%
Residual absorbance percentage ([1]; 3 μM dye in MOPS (50 mM, pH 7.0), 4 weeks (Table III)): 96.1%
Residual absorbance percentage ([1]; 3 μM dye in TRICINE (50 mM, pH 8.0), 1 week (Table III)): 99.7%
Residual absorbance percentage ([1]; 3 μM dye in TRICINE (50 mM, pH 8.0), 2 weeks (Table III)): 98.7%
Residual absorbance percentage ([1]; 3 μM dye in TRICINE (50 mM, pH 8.0), 4 weeks (Table III)): 97.9%
SMILES: CC1(C)C(/C=C/C2=C(Cl)C(=C/C=C3/N(CCCCS(=O)(=O)[O-])c4ccc(S(=O)(=O)[O-])cc4C3(C)C)/CCC2)=[N+](CCCCS(=O)(=O)[O-])c2ccc(S(=O)(=O)[O-])cc21.[Na+].[Na+].[Na+] [S0456]

SMILES: CC1(C)C(=CC=C2CCCC(C=CC3=[N+](CCCCCC(=O)[O-])c4ccc(S(=O)(=O)[O-])cc4C3(C)C)=C2Oc2ccc(S(=O)(=O)[O-])cc2)N(CCCCS(=O)(=O)[O-])c2ccc(S(=O)(=O)[O-])cc21.[Na+].[Na+].[Na+].[Na+] [IRDye 800CW]
Residual absorbance percentage ([1]; 3 μM dye in HEPES (50 mM, pH 7.4), 1 week (Table II)): 100.9%
Residual absorbance percentage ([1]; 3 μM dye in HEPES (50 mM, pH 7.4), 2 weeks (Table II)): 100.3%
Residual absorbance percentage ([1]; 3 μM dye in HEPES (50 mM, pH 7.4), 4 weeks (Table II)): 99.3%
Residual absorbance percentage ([1]; 3 μM dye in MES (50 mM, pH 6.2), 1 week): 99.4%
Residual absorbance percentage ([1]; 3 μM dye in MES (50 mM, pH 6.2), 2 weeks): 96.7%
Residual absorbance percentage ([1]; 3 μM dye in MES (50 mM, pH 6.2), 4 weeks): 93.2%
Residual absorbance percentage ([1]; 3 μM dye in MOPS (50 mM, pH 7.0), 1 week (Table II)): 99.3%
Residual absorbance percentage ([1]; 3 μM dye in MOPS (50 mM, pH 7.0), 2 weeks (Table II)): 98.0%
Residual absorbance percentage ([1]; 3 μM dye in MOPS (50 mM, pH 7.0), 4 weeks (Table II)): 95.2%
Residual absorbance percentage ([1]; 3 μM dye in PBS (50 mM, pH 7.4), 1 week): 100%
Residual absorbance percentage ([1]; 3 μM dye in PBS (50 mM, pH 7.4), 2 weeks): 92.9%
Residual absorbance percentage ([1]; 3 μM dye in PBS (50 mM, pH 7.4), 4 weeks): 79.1%
Residual absorbance percentage ([1]; 3 μM dye in PBS (50 mM, pH 7.4), 4 weeks, listed as IRDye 8000W): lower than 80%
Residual absorbance percentage ([1]; 3 μM dye in TRICINE (50 mM, pH 8.0), 1 week (Table II)): 100.5%
Residual absorbance percentage ([1]; 3 μM dye in TRICINE (50 mM, pH 8.0), 2 weeks (Table II)): 99.9%
Residual absorbance percentage ([1]; 3 μM dye in TRICINE (50 mM, pH 8.0), 4 weeks (Table II)): 99.3%
Residual absorbance percentage ([2]; 3 μM dye in HEPES (50 mM, pH 7.4) +0.02% sodium azide, +2-8° C., 1 week): 96.9%
Residual absorbance percentage ([2]; 3 μM dye in HEPES (50 mM, pH 7.4) +0.02% sodium azide, +2-8° C., 2 weeks): 92.4%
Residual absorbance percentage ([2]; 3 μM dye in HEPES (50 mM, pH 7.4) +0.02% sodium azide, +2-8° C., 4 weeks): 89.1%
Residual absorbance percentage ([2]; 3 μM dye in HEPES (50 mM, pH 7.4) +0.04% Tween 20, +2-8° C., 1 week): 100.5%
Residual absorbance percentage ([2]; 3 μM dye in HEPES (50 mM, pH 7.4) +0.04% Tween 20, +2-8° C., 2 weeks): 95.8%
Residual absorbance percentage ([2]; 3 μM dye in HEPES (50 mM, pH 7.4) +0.04% Tween 20, +2-8° C., 4 weeks): 92.4%
Residual absorbance percentage ([2]; 3 μM dye in TRICINE (50 mM, pH 8.0) +0.02% sodium azide, +2-8° C., 1 week): 97.7%
Residual absorbance percentage ([2]; 3 μM dye in TRICINE (50 mM, pH 8.0) +0.02% sodium azide, +2-8° C., 2 weeks): 93.0%
Residual absorbance percentage ([2]; 3 μM dye in TRICINE (50 mM, pH 8.0) +0.02% sodium azide, +2-8° C., 4 weeks): 89.8%
Residual absorbance percentage ([2]; 3 μM dye in TRICINE (50 mM, pH 8.0) +0.04% Tween 20, +2-8° C., 1 week): 97.7%
Residual absorbance percentage ([2]; 3 μM dye in TRICINE (50 mM, pH 8.0) +0.04% Tween 20, +2-8° C., 2 weeks): 93.0%
Residual absorbance percentage ([2]; 3 μM dye in TRICINE (50 mM, pH 8.0) +0.04% Tween 20, +2-8° C., 4 weeks): 89.8%
Residual absorbance percentage ([3]; 3 μM dye in HEPES (50 mM), 1 week): 100.9%
Residual absorbance percentage ([3]; 3 μM dye in HEPES (50 mM), 2 weeks): 98.4%
Residual absorbance percentage ([3]; 3 μM dye in MOPS (50 mM), 1 week): 99.7%
Residual absorbance percentage ([3]; 3 μM dye in MOPS (50 mM), 2 weeks): 97.3%
Residual absorbance percentage ([4]; 1 month): 99.3%
Residual absorbance percentage ([4]; 3 months): 97.7%
Residual absorbance percentage ([4]; 6 months): 96.2%

SMILES: O=S(=O)(O)CCN(CCO)CCO [BES, 2-[bis(2-hydroxyethyl)amino]ethanesulfonic acid]
pKa (20° C.) [5]: 7.2
